One test deals with T1, human AT1 receptor (Homo sapiens, UniProt P30556).
T1 construct: expressed in transfected cells; membrane preparation
T1 sequence (P30556 1-359): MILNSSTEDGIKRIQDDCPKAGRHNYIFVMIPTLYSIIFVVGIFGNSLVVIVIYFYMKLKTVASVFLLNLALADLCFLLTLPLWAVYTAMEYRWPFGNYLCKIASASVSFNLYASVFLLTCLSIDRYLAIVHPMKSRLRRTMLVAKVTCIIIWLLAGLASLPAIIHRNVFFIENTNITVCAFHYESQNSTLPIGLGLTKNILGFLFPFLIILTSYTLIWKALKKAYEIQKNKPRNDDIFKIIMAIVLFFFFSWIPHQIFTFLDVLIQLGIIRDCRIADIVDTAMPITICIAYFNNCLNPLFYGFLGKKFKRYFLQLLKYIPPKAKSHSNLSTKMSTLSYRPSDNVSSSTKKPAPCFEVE
Briefly: AT1 radioligand binding assay. The note with it: [Eu]AngII displacement, CHO-K1 membranes expressing human AT1; read-out: pKi at the AT1 receptor (converted). On the procedure: These in vitro assays were used to assess the ability of test compounds to bind to the AT1 and the AT2 receptors.
Membrane Preparation from Cells Expressing Human AT1 or AT2 Receptors
Chinese hamster ovary (CHO-K1) derived cell lines stably expressing the cloned human AT1 or AT2 receptors, respectively, were grown in HAM's-F12 medium supplemented with 10% fetal bovine serum, 10 μg/ml penicillin/streptomycin, and 500 μg/ml geneticin in a 5% CO2 humidified incubator at 37° C. AT2 receptor expressing cells were grown in the additional presence of 100 nM PD123,319 (AT2 antagonist). When cultures reached 80-95% confluence, the cells were washed thoroughly in PBS and lifted with 5 mM EDTA. Cells were pelleted by centrifugation and snap frozen in MeOH-dry ice and stored at −80° C. until further use.
For membrane preparation, cell pellets were resuspended in lysis buffer (25 mM Tris/HCl pH 7.5 at 4° C., 1 mM EDTA, and one tablet of Complete Protease Inhibitor Cocktail Tablets with 2 mM EDTA per 50 mL buffer (Roche cat. #1697498, Roche Molecular Biochemicals, Indianapolis, Ind.)) and homogenized using a tight-fitting Dounce glass homogenizer (10 strokes) on ice. The homogenate was centrifuged at 1000×g, the supernatant was collected and centrifuged at 20,000×g. […] Protein concentration of the membrane suspension was determined by the method described in Bradford (1976) Anal Biochem. 72:248-54. […]

For a further test, the target named is T2, NEP enzyme (Homo sapiens, UniProt P08473).
T2 construct: purchased R&D Systems, Minneapolis, Minn; 1182-ZN
T2 sequence (P08473 52-750 limits assumed): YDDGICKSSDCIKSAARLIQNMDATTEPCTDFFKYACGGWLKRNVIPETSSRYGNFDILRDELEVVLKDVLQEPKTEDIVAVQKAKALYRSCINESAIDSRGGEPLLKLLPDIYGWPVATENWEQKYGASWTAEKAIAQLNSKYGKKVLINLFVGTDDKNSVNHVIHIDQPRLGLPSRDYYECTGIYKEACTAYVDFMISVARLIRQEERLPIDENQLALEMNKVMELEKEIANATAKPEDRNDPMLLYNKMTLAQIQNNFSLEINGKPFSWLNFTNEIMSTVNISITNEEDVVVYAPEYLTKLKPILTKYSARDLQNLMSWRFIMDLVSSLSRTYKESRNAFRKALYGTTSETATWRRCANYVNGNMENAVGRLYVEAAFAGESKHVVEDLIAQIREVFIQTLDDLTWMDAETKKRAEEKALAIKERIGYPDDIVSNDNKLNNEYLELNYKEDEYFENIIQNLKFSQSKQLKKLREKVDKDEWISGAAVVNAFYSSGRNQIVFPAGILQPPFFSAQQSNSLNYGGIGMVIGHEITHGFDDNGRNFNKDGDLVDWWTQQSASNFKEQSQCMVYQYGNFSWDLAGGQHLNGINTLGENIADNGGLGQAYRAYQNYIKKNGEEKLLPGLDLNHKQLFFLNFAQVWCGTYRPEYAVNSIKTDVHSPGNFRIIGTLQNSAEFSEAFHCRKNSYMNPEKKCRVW
Briefly: In vitro NEP enzyme inhibition assay. As to conditions: fluorogenic peptide substrate; read-out: pIC50 for the NEP enzyme (converted). The format is biochemical. On the procedure: The inhibitory activities of compounds at human and rat NEP and human ACE were determined using in vitro assays as described below.
Rat NEP was prepared from the kidneys of adult Sprague Dawley rats. Whole kidneys were washed in cold PBS and brought up in ice-cold lysis buffer (1% Triton X-114, 150 mM NaCl, 50 mM Tris pH 7.5; Bordier (1981) J. Biol. Chem. 256:1604-1607) in a ratio of 5 mL of buffer for every gram of kidney. Samples were homogenized using a polytron hand held tissue grinder on ice. Homogenates were centrifuged at 1000×g in a swinging bucket rotor for 5 minutes at 3° C. The pellet was resuspended in 20 mL of ice cold lysis buffer and incubated on ice for 30 minutes. […] Protein concentrations were quantitated using a BCA detection system with BSA as a standard. […]
The assays were performed in 384-well white opaque plates at room temperature using the respective fluorogenic peptides at a concentration of 10 μM in Assay Buffer (50 mM Tris/HCl at 25° C., 100 mM NaCl, 0.01% Tween-20, 1 μM Zn, 0.025% BSA). […] The rat NEP enzyme preparation was used at a concentration that yielded quantitative proteolysis of 3 μM of Mca-RRL within 20 minutes at room temperature. […]
Plates were read on a fluorometer with excitation and emission wavelengths set to 320 nm and 405 nm, respectively. […]

Each structure is given as a SMILES string. Bounds are passed on as bounds.

On to `CCCCc1nc(C(=O)N[C@@H](CC(=O)NO)Cc2ccccc2)cn1Cc1ccc(C(=O)O)cc1` [Example 1, 4-[4-((R)-1-benzyl-2-hydroxycarbamoylethylcarbamoyl)-2-butyl-imidazol-1-ylmethyl]benzoic Acid], for which the Ki at human AT1 receptor was less than 10 µM. For the same molecule, the IC50 on NEP enzyme is no more than 0.1 µM.

For the origin of these results see patent US8338418B2, “Dual-acting antihypertensive agents” (Theravance, Inc., priority 2008, dated 2012).
